Results from article PMC4588393 (EBioMedicine, 2015).
Counter-ions that a name gives are not always drawn. Bridge positions count the residues as written; N and C are the ends. Square brackets hold non-standard residues; d marks the D form. Peptide text beside a SMILES is read from it. * marks the point of attachment. X1 = CC[C@H](C)CCCCC(=O)*; Dab = NCC[C@H](N)C(=O)O

Columns and labels:
S. Typhimurium 14028 = assay type: cell-based, Salmonella enterica Typhimurium
[1] = system: TIVAR + S. Typhimurium 14028; design: species or system BALB/c mice; details: in vivo
[2] = system: TIVAR − S. Typhimurium var. 5 (04)-9639; design: species or system BALB/c mice; details: in vivo
[3] = in vivo; cited from earlier work

## CC[C@H](C)CCCCC(=O)N[C@@H](CCN)C(=O)N[C@H](C(=O)N[C@@H](CCN)C(=O)N[C@H]1CCNC(=O)[C@H]([C@@H](C)O)NC(=O)[C@H](CCN)NC(=O)[C@H](CCN)NC(=O)[C@H](CC(C)C)NC(=O)[C@@H](CC(C)C)NC(=O)[C@H](CCN)NC1=O)[C@@H](C)O [Colistin sulfate, colistin sulfate] (X1-[Dab]T[Dab][Dab][Dab][dL]L[Dab][Dab]T; lactam 4-C (inferred); N-terminus assumed)
S. Typhimurium 14028
  resistance linked to growth in LPM pH 5.5 medium (MIC ratio of LPM pH 5.5/pH 7.0 to MHB pH 5.5/pH 7.2): 256 fold

## O=C(O)c1cn(C2CC2)c2cc(N3CCNCC3)c(F)cc2c1=O [Ciprofloxacin, ciprofloxacin]
[1]
  mouse survival post-infection: at least 10 days

## CC[C@H](C)CCCCC(=O)N[C@@H](CCN)C(=O)N[C@H](C(=O)N[C@@H](CCN)C(=O)N[C@H]1CCNC(=O)[C@H]([C@@H](C)O)NC(=O)[C@H](CCN)NC(=O)[C@H](CCN)NC(=O)[C@H](CC(C)C)NC(=O)[C@@H](Cc2ccccc2)NC(=O)[C@H](CCN)NC1=O)[C@@H](C)O [Polymyxin B, polymyxin B] (X1-[Dab]T[Dab][Dab][Dab][dF]L[Dab][Dab]T; lactam 4-C (inferred); N-terminus assumed)
[2]
  mouse survival post-infection: at least 10 days
[1]; mouse
  time within which all treated mice died: ≤ 7 days
[3]
  circulating PMB levels: 0.5 to 2.5 mg/L
S. Typhimurium 14028
  resistance linked to growth in LPM pH 5.5 medium (MIC ratio of LPM pH 5.5/pH 7.0 to MHB pH 5.5/pH 7.2): 64 fold

## COc1cc(Cc2cnc(N)nc2N)cc(OC)c1OC [Trimethoprim, trimethoprim]
S. Typhimurium 14028
  resistance linked to growth in LPM pH 5.5 medium (MIC ratio of LPM pH 5.5/pH 7.0 to MHB pH 5.5/pH 7.2): 4 fold

## CO/N=C(\C(=O)N[C@@H]1C(=O)N2C(C(=O)O)=C(CSC(=O)c3ccco3)CS[C@H]12)c1csc(N)n1 [Ceftiofur, ceftiofur]
S. Typhimurium 14028
  effect of pH and media composition on efficacy of antibiotic: unaffected

## CN(C)[C@@H]1C(O)=C(C(N)=O)C(=O)[C@@]2(O)C(O)=C3C(=O)c4c(O)cccc4[C@@](C)(O)[C@H]3C[C@@H]12 [Tetracycline, tetracycline]
S. Typhimurium 14028
  effect of pH and media composition on efficacy of antibiotic: unaffected

## O=C(N[C@H](CO)[C@H](O)c1ccc([N+](=O)[O-])cc1)C(Cl)Cl [Chloramphenicol, chloramphenicol]
S. Typhimurium 14028
  effect of pH and media composition on efficacy of antibiotic: unaffected
